The source of these data is patent US12252508B2, “Ginsenoside and anti-inflammatory composition comprising same” (AMOREPACIFIC CORPORATION, priority 2018, dated 2025).

Assay type in all cases: cell-based
The test system of data set [1] is IL-1β. As to the kind of experiment: IL-1β gene expression by qPCR in LPS-treated RAW 264.7 macrophages. As to conditions: then 10 ng/mL LPS 6 hours. The method, then: (§1) RAW 264.7 macrophages purchased from ATCC were cultured in Dulbecco's modified Eagle's medium (Sigma) supplemented with 10% fetal bovine serum (FBS; HyClone) and 1% penicillin/streptomycin (Sigma) in a 5% CO2 incubator. After pretreating the RAW 264.7 cells with each of the 7 ginsenosides extracted from ginseng seed (GS #01 to GS #06 and GS #10; 10 μM each) for 2 hours, the cells were further treated with 10 ng/mL lipopolysaccharide (LPS; inflammation-induced group, Sigma) for 6 hours. Then, after extracting RNA using a Trizol™ reagent (Thermo Fisher Scientific), cDNA was synthesized using a RevertAid™ first-strand cDNA synthesis kit (Thermo Fisher Scientific). The expression of inflammation-related genes (IL-1β, IL-6 and iNOS) was observed using a CFX96 real-time quantitative PCR (qPCR) system (Bio-Rad).
(§2) RAW 264.7 macrophages were pretreated with ginsenosides Rg1, Rg3 and Rb1 (purchased from Sigma), which are marker compounds of red ginseng, as comparative examples of the present disclosure or the novel ginsenoside GS #10 (isolated from the ginseng seed extract) as an example of the present disclosure at 1 or 10 μM for 2 hours and then further treated with 10 ng/mL lipopolysaccharide (LPS) for 6 hours to induce inflammation. Then, after extracting RNA and synthesizing cDNA in the same manner as in Test Example 1, the expression of inflammation-related genes was observed by qPCR. […]
For orientation: Real-time PCR tracks product formation cycle by cycle.

In data set [2] the test system is IL-6. As to the kind of experiment: IL-6 secretion by ELISA in LPS-treated RAW 264.7 macrophages. As to conditions: RAW 264.7, serum-free medium, 1 or 10 μM 2 hours, then 10 ng/mL LPS 6 hours, FIG. 19. As to the method:
(§3) RAW 264.7 macrophages were used as in Test Example 2. A serum-free medium without comprising FBS was used for the measurement of the amount of cytokines. After pretreating the cells for 2 hours with each ginsenoside at 1 or 10 μM under the same condition as in Test Example 1 and then treating with 10 ng/mL LPS for 6 hours, only the medium was recovered and the secretion of pro-inflammatory cytokines, tumor necrosis factor α (TNF-α), interleukin 1β (IL-1β) and IL-6, was measured using an enzyme-linked immunosorbent assay kit (Abcam).

The test system of data set [3] is IL-6. As to the kind of experiment: IL-6 gene expression by qPCR in LPS-treated RAW 264.7 macrophages. The following applies: then 10 ng/mL LPS 6 hours. As to the method: as §1, §2
Data set [4] deals with SH-SY5Y cells. As to the kind of experiment: Cytotoxicity, cell viability by CCK-8. As to conditions: 0.1, 1, 5, 10, 20 and 50 μM, FIG. 21. The method, then: After adding 10 μL of CCK-8 reagent to SH-SY5Y cells (Dojindo, MD, USA) on a 96-well plate and maintaining at 37° C. for 2 hours, absorbance was measured at 450 nm.
Cell viability was represented as the percentage (%) of the absolute optical density of each sample with respect to an untreated sample. The concentrations of the novel ginsenoside GS #10 according to an exemplary embodiment of the present disclosure in the medium for culturing the cells were 0.1, 1, 5, 10, 20 and 50 μM.

Data set [5] relates to interleukin 1β (IL-1β). As to the kind of experiment: IL-1β secretion by ELISA in LPS-treated RAW 264.7 macrophages. The following applies: RAW 264.7, serum-free medium, 1 or 10 μM 2 hours, then 10 ng/mL LPS 6 hours, FIG. 18. The method, then:
as §3

In data set [6] the test system is nitric oxide (NO) production in RAW264.7 macrophages. In words: Nitric oxide (NO) production by Griess reaction in LPS-treated RAW 264.7 macrophages. The following applies: 1 or 10 μM 1 hour, then 10 ng/mL LPS 1 hour, FIG. 20. The method, then:
RAW 264.7 macrophages were treated with 10 μM L-NAME (NO production inhibitor; control group; Sigma), ginsenosides Rg1, Rg3 and Rb1 (purchased from Sigma), which are marker compounds of red ginseng, as comparative examples of the present disclosure or the novel ginsenoside GS #10 (extracted from ginseng seed) as an example of the present disclosure at 1 or 10 μM for 1 hour, and then treated with 10 ng/mL LPS for 1 hour. The amount of NO produced during 1 hour was measured using the Griess reaction. Briefly, after adding 50 μL of sulfanilamide solution to 50 μL of each ginsenoside sample, the mixture was incubated for 10 minutes at room temperature under protection from light. Then, after adding N-(1-napthyl)ethylenediamine solution (50 μL), the mixture was further incubated for 10 minutes at room temperature under protection from light. The […] of NO was measured at a wavelength of 540 nm using a Tecan Infinite® 200 Pro multiplate reader. Sodium nitrite (NaNO2) was used to create a standard curve.
(In general: The Griess reaction detects nitrite, a stable product of nitric oxide.)

The test system of data set [7] is iNOS. In words: iNOS gene expression by qPCR in LPS-treated RAW 264.7 macrophages. As to conditions: then 10 ng/mL LPS 6 hours. As to the method:
as §1, §2

The subject of data set [8] is tumor necrosis factor α (TNF-α). In words: TNF-α secretion by ELISA in LPS-treated RAW 264.7 macrophages. The following applies: RAW 264.7, serum-free medium, 1 or 10 μM 2 hours, then 10 ng/mL LPS 6 hours, FIG. 17. The method, then:
as §3
Background: ELISA stands for enzyme-linked immunosorbent assay.

Data set [9] relates to inflammation-related genes (IL-1β, IL-6 and iNOS). In words: Overall anti-inflammatory effect from qPCR of inflammation-related genes (Test Example 2). As to conditions: RAW 264.7; 1 or 10 μM, LPS 10 ng/mL; relative to Rg1; FIGS. 14-16. As to the method: as §1, §2

Molecules are shown by their SMILES. “Also recorded” adds a separate entry of the source.

For `CC1(C)C(=O)CC[C@@]2(C)C1[C@@H](O[C@H]1OC(CO)[C@H](O)C(O)C1O[C@H]1OC(CO)[C@H](O)C(O)C1O)C[C@]1(C)C2C[C@@H](O)C2C([C@]3(C)CC[C@H](C(C)(C)O)O3)CC[C@]21C` (stereo partly drawn) [Compound 10, (20S,24R)-6-O-β-D-glucopyranosyl(1→2)-β-D-glucopyranoside-dammar-3-one-20,24-epoxy-6a,12b,25-triol], the “expression level of the IL-1β gene” value in [1] (10 μM pretreatment 2 hours, compared to Compounds 1-6 at the same concentration, FIG. 11) is reported as “remarkably suppress”. For the same compound, the “anti-inflammatory effect (IL-1β expression level)” value in data set [1] (1 or 10 μM for 2 hours, compared to Rg1, Rg3 and Rb1, FIG. 14) is given as “remarkably excellent anti-inflammatory effect”. The “secretion of IL-6” value in [2] was “significant decreased secretion”. Also, in data set [3] (10 μM pretreatment 2 hours, compared to Compounds 1-6 at the same concentration, FIG. 12), the “expression level of the IL-6 gene” value was “remarkably suppress”. For the same compound, the “anti-inflammatory effect (IL-6 expression level)” value in data set [3] (1 or 10 μM for 2 hours, compared to Rg1, Rg3 and Rb1, FIG. 15) is reported as “remarkably excellent anti-inflammatory effect”. Also, the “cytotoxicity (cell viability, % of untreated sample)” value in data set [4] is listed as “no cytotoxicity”. The “secretion of IL-1β” value in data set [5] was “significant decreased secretion”. The “NO production-inhibiting ability compared to Rg1, Rg3 and Rb1” value in data set [6] is “remarkably superior”. The NO production result in [6] (with increasing dosage) is given as “decreased”. Further, in data set [7] (10 μM pretreatment 2 hours, compared to Compounds 1-6 at the same concentration, FIG. 13), the “expression level of the iNOS gene” value is reported as “remarkably suppress”. Further, the “anti-inflammatory effect (iNOS expression level)” value in [7] (1 or 10 μM for 2 hours, compared to Rg1, Rg3 and Rb1, FIG. 16, listed as GS #10) was “remarkably excellent anti-inflammatory effect; also recorded: decreased greatly”. In addition, in data set [8], the “secretion of TNF-α” value is recorded as “significant decreased secretion”. Besides, the “anti-inflammatory effect superior to that of Rg1” value in data set [9] is recorded as “about 10 times”.
In the case of `CC(C)=CCC[C@](C)(O[C@@H]1O[C@H](CO[C@@H]2O[C@H](CO)[C@@H](O)[C@H](O)[C@H]2O)[C@@H](O)[C@H](O)[C@H]1O)[C@H]1CC[C@]2(C)[C@@H]1[C@H](O)C[C@@H]1[C@@]3(C)CC[C@H](O[C@@H]4O[C@H](CO)[C@@H](O)[C@H](O)[C@H]4O[C@@H]4O[C@H](CO)[C@@H](O)[C@H](O)[C@H]4O)C(C)(C)[C@@H]3CC[C@]12C` [Rb1, ginsenoside Rb1], the “secretion of IL-6” value in [2] was “decreased”. For the same compound, the “secretion of IL-1β” value in data set [5] is given as “decreased”. The “secretion of TNF-α” value in [8] is “decreased”.
Take `CC(C)=CCC[C@](C)(O[C@@H]1O[C@H](CO)[C@@H](O)[C@H](O)[C@H]1O)[C@H]1CC[C@]2(C)[C@@H]1[C@H](O)C[C@@H]1[C@@]3(C)CC[C@H](O)C(C)(C)[C@@H]3[C@@H](O[C@@H]3O[C@H](CO)[C@@H](O)[C@H](O)[C@H]3O)C[C@]12C` [Rg1, ginsenoside Rg1]: in data set [2], the “secretion of IL-6” value is given as “decreased”. For the same compound, in data set [5], the “secretion of IL-1β” value is listed as “decreased”. Besides, in [8], the “secretion of TNF-α” value is given as “decreased”.
Consider `CC(C)=CCC[C@](C)(O)[C@H]1CC[C@]2(C)[C@@H]1[C@H](O)C[C@@H]1[C@@]3(C)CC[C@H](O[C@@H]4O[C@H](CO)[C@@H](O)[C@H](O)[C@H]4O[C@@H]4O[C@H](CO)[C@@H](O)[C@H](O)[C@H]4O)C(C)(C)[C@@H]3CC[C@]12C` [Rg3, ginsenoside Rg3], for which the “secretion of IL-6” value in data set [2] is “decreased”. Besides, the “secretion of IL-1β” value in data set [5] was “decreased”. In addition, in data set [8], the “secretion of TNF-α” value is reported as “decreased”.
